Laboratory results from patent US9770435B2 (EUROSCREEN SA, priority 2013, dated 2017).

Tested on: TNFα secretion from LPS-stimulated PBMC
Experiment: Cytokines release from peripheral blood mononuclear cell assay: TNFα
Type: cell-based
Details: Homo sapiens, 3 h
Protocol: Data are presented as percentage of LPS response.
Data are presented as mean±SEM and the final concentration of each tested compound in the assay is 10 μM. Statistical analysis was performed by 2-way ANOVA followed by Dunnet's comparison to vehicle group, ****p<0.0001.
Cytokines Release from Peripheral Blood Mononuclear Cell Assay
Peripheral blood mononuclear cells (PBMC) are purified from heparinised fresh blood sample on a Lymphoprep gradient. PBMC are plated in 96-well assay plate (2×10^5 cells/well) and stimulated with or without LPS (100 ng/ml) and increasing concentration of compounds of the invention for 3 hours at 37° C. Cell supernatants are recovered after centrifugation and human soluble TNFα, IL-6 or other cytokines, are quantified using ELISA assay (R&D system) according manufacturer's recommendation.
Additional results with compounds of the invention are set out in tabulated form (Table 5).

Going from `COc1ncc(-c2ccc(C(=O)N3[C@@H](c4ccccc4Cl)CC[C@H]3C(=O)O)cc2)c(OC)n1` [Compound 161, (2S,5R)-5-(2-chlorophenyl)-1-(4-(2,4-dimethoxypyrimidin-5-yl)benzoyl)pyrrolidine-2-carboxylic acid] to `COc1ncc(-c2ccc(C(=O)N3[C@@H](c4ccccc4Cl)CC[C@H]3C(=O)O)cc2Cl)c(OC)n1` [Compound 325, (2S,5R)-1-(3-chloro-4-(2,4-dimethoxypyrimidin-5-yl)benzoyl)-5-(2-chlorophenyl)pyrrolidine-2-carboxylic acid], the IC50 falls from 11.8 µM to 6 µM (2-fold). The second is the more potent here.

Compared with `COc1ccc(C#N)cc1-c1ccc(C(=O)N2[C@@H](c3ccccc3Cl)CC[C@H]2C(=O)O)cc1` [Compound 345, (2S,5R)-5-(2-chlorophenyl)-1-(5′-cyano-2′-methoxy-[1,1′-biphenyl]-4-carbonyl)pyrrolidine-2-carboxylic acid], `COc1cc(C#N)c(-c2ccc(C(=O)N3[C@@H](c4ccccc4Cl)CC[C@H]3C(=O)O)cc2)cc1OC` [Compound 361, (2S,5R)-5-(2-chlorophenyl)-1-(2′-cyano-4′,5′-dimethoxy-[1,1′-biphenyl]-4-carbonyl)pyrrolidine-2-carboxylic acid] is 5.2-fold higher in IC50: 0.99 µM for the first, 5.19 µM for the second. The first is the more potent here.

Compared with `N#Cc1ccccc1-c1ccc(C(=O)N2[C@@H](c3ccccc3Cl)CC[C@H]2C(=O)O)cc1F` [Compound 390, (2S,5R)-5-(2-chlorophenyl)-1-(2′-cyano-2-fluoro-[1,1′-biphenyl]-4-carbonyl)pyrrolidine-2-carboxylic acid], `Cc1ccc(C#N)cc1-c1ccc(C(=O)N2[C@@H](c3cccc(F)c3F)CC[C@H]2C(=O)O)cc1` [Compound 421, (2S,5R)-1-(5′-cyano-2′-methyl-[1,1′-biphenyl]-4-carbonyl)-5-(2,3-difluorophenyl)pyrrolidine-2-carboxylic acid] is 1.9-fold lower in IC50: 5.52 µM for the first, 2.93 µM for the second. The second is the more potent here.
